Experimental data reported in PMC314469, “Protein Interaction Networks by Proteome Peptide Scanning” (PLoS Biology, 2004).
No end group written: not given here.

Key:
Myo5 SH3 domain = test: SPOT analysis of cellulose-bound peptides (WISE), Myo5 SH3 domain (Dataset S4); format: binding, Saccharomyces cerevisiae; settings: for The normalized value in BLU units: Myo5 SH3 domain
[1] = molecular target: T1, Rvs167 SH3 domain (GST-fused) (Saccharomyces cerevisiae, UniProt P39743); test: Surface plasmon resonance (BIAcoreX) dissociation constants of peptides, Rvs167 SH3 domain; format: binding; settings: Figure 4A; SPR BIAcoreX, GST-SH3 coupled to CM5 chip, GST control; peptides in 10 mM HEPES, 150 mM NaCl, 3.4 mM EDTA, 0.005% P20, pH 7.4, 25°C; steady-state model; read-out: dissociation constant, SH3 DOMAINS RVS167
T1 construct: Experiments were carried out on sensor chips with GST-fused SH3 domains and GST as a control; made in house
Experimental: Figure 4 Measurement of Dissociation Constants and Correlation with SPOT Intensities (A) Dissociation constants were measured with a BIAcoreX instrument as described in the Materials and Methods. The experiments with the Abp1 SH3 domain were carried out in triplicate. (B) Normalized BLU intensities plotted as a function of the log of the dissociation constant.
Surface plasmon resonance measurements were carried out with a BIAcoreX instrument (BIAcore, Uppsala, Sweden). Experiments were carried out on sensor chips with GST-fused SH3 domains and GST as a control. […] Interaction analysis was performed at 25°C with the peptides dissolved in 10 mM HEPES, 150 mM NaCl, 3.4 mM EDTA, and 0.005% surfactant P20 (pH 7.4), at 15 μl/min flow rate, using six to seven dilutions, ranging from 500 μM to 65 nM. Dissociation constant values were evaluated by applying the steady-state model using BIAcore evalution 3.1 software.

[2] = SPOT analysis of membrane-synthesized peptides probed with Myo5 SH3 domain, normalized value
[3] = SPOT analysis of cellulose-bound 14-mer yeast proteome peptides, normalized value, mean where the peptide was synthesized more than once
[4] = SPOT analysis of cellulose-bound peptides probed with Myo5 SH3 domain, normalized value
[5] = SPOT analysis of membrane-bound peptides, normalized value (see methods)

T1 sequence (P39743 421-482 limits assumed): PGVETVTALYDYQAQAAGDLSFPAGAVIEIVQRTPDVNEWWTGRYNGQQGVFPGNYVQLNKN

## MGLNKDVPHCPESL
Myo5 SH3 domain; [2]
  The normalized value in BLU units (SPOT analysis, Myo5 SH3): 99.4 BLU

## SWRSLTKPKIPLYK
Myo5 SH3 domain; [3]
  The normalized value in BLU units: 356.9 BLU

## DRLSKIKPFLPQSI
Myo5 SH3 domain; [2]
  The normalized value in BLU units (SPOT analysis, Myo5 SH3): 225.5 BLU

## GPLLLTVPELPEAD
Myo5 SH3 domain; [3]
  The normalized value in BLU units: 162.3 BLU

## ETSLRVLPIAPKIF
Myo5 SH3 domain; [3]
  The normalized value in BLU units: 548.0 BLU

## TSSSRRGPGRPRKD
Myo5 SH3 domain; [2]
  The normalized value in BLU units (SPOT analysis, Myo5 SH3): 619.5 BLU

## KLPDLKLPPSPVPS
Myo5 SH3 domain; [3]
  The normalized value in BLU units: 231.2 BLU

## SSVSKLKPSLPNKL
Myo5 SH3 domain; [2]
  The normalized value in BLU units (SPOT analysis, Myo5 SH3): 418.3 BLU

## VFVEKSKPTYPGTE
Myo5 SH3 domain; [2]
  The normalized value in BLU units (SPOT analysis, Myo5 SH3): 96.4 BLU

## LEFSHYAPTAPHVQ
Myo5 SH3 domain; [4]
  The normalized value in BLU units (SPOT analysis, Myo5 SH3): 103.0 BLU

## DLQKKYEPSPPATH
Myo5 SH3 domain; [5]
  The normalized value in BLU units: 224.6 BLU

## RSRSKKDPGIPSNF
Myo5 SH3 domain; [2]
  The normalized value in BLU units (SPOT analysis, Myo5 SH3): 800.0 BLU

## TAPIHSTPKPPPND
Myo5 SH3 domain; [3]
  The normalized value in BLU units: 77.7 BLU

## LELLLSLPTGPESK
Myo5 SH3 domain; [4]
  The normalized value in BLU units (SPOT analysis, Myo5 SH3): 142.9 BLU

## LPEKKNSPTTPSVF
Myo5 SH3 domain; [5]
  The normalized value in BLU units: 102.5 BLU

## SENRLRTPLKPLVN
Myo5 SH3 domain; [4]
  The normalized value in BLU units (SPOT analysis, Myo5 SH3): 272.3 BLU

## LAAHKTKPSIPPKK
Myo5 SH3 domain; [5]
  The normalized value in BLU units: 248.8 BLU

## LTSFKGRPKPPKTL
Myo5 SH3 domain; [5]
  The normalized value in BLU units: 327.7 BLU

## AADSHAIPVDPPSY
Myo5 SH3 domain; [4]
  The normalized value in BLU units (SPOT analysis, Myo5 SH3): 37.9 BLU

## NTLLKVVPQEPTAV
Myo5 SH3 domain; [2]
  The normalized value in BLU units (SPOT analysis, Myo5 SH3): 154.4 BLU

## RPKRRAPPPVPKKP [YIR003 RPKRRAPPPVPKKP]
[1]
  Kd: 13 µM

## LLVTKERPRFPEDD
Myo5 SH3 domain; [5]
  The normalized value in BLU units: 33.7 BLU

## KAALKYHPDKPTGD
Myo5 SH3 domain; [2]
  The normalized value in BLU units (SPOT analysis, Myo5 SH3): 155.5 BLU

## LQESKTVPQSPKKP
Myo5 SH3 domain; [2]
  The normalized value in BLU units (SPOT analysis, Myo5 SH3): 159.2 BLU

## GYNPKTVPFVPISG
Myo5 SH3 domain; [5]
  The normalized value in BLU units: 108.5 BLU

## WRWARDTPRAPGLH
Myo5 SH3 domain; [2]
  The normalized value in BLU units (SPOT analysis, Myo5 SH3): 2104.5 BLU

## CFKTKFAPEAPDLF
Myo5 SH3 domain; [5]
  The normalized value in BLU units: 209.0 BLU

## IPAPKLVPPPPRTR
Myo5 SH3 domain; [5]
  The normalized value in BLU units: 82308.4 BLU

## VQIKRADPHFPHDE
Myo5 SH3 domain; [5]
  The normalized value in BLU units: 132.0 BLU

## PVPVRMQPQPPQPM
Myo5 SH3 domain; [5]
  The normalized value in BLU units: 187.8 BLU

## WETWLYKPGMPPRP
Myo5 SH3 domain; [3]
  The normalized value in BLU units: 255.2 BLU

## IPVGYVTPKFPSLY
Myo5 SH3 domain; [3]
  The normalized value in BLU units: 21.6 BLU

## KFDAKGRPIPPHPD
Myo5 SH3 domain; [5]
  The normalized value in BLU units: 53.5 BLU

## KTVDKGLPMIPTYV
Myo5 SH3 domain; [3]
  The normalized value in BLU units: 76.8 BLU
